Measured values published in patent US5436243A, “Aminoanthraquinone derivatives to combat multidrug resistance” (priority 1993, dated 1995).
Like-named read-outs stand apart in the source and are kept apart here.

Experiments:
[1] = tested on: granulocyte-macrophage progenitors (CFU-GM); experiment: cells; details: for IC50: Homo sapiens, CFU-GM, read-out: Continuous Exposure IC50, CFU-GM
Description: (§1) Myelosuppression is often a dose limiting side effect of chemotherapeutic agents. […] The toxicities to human granulocyte-macrophage progenitors (CFU-GM) of 1b, 1c, and VLB was assessed by measuring inhibition of CFU-GM proliferation in cultures continuously exposed to each agent alone and compared to the toxicities to sensitive and resistant MCF7 in tumor cell clonogenic assays.
(§2) METHOD: The CFLI-GM assay measures clonal proliferation of granulocyte/macrophage precursors in semisolid agar cultures. The progeny of the granulocyte/macrophage precursors remain in proximity of the progenitor cells and form colonies. Colonies which contain greater than 40 cells after 10-12 days of culture are counted using an inverted phase contrast microscope. The tumor cell clonogenic assays measure clonal proliferation of tumor cells. In this assay, 300-500 cells are plated in 10 cm^2 wells, allowed to adhere overnight, and are treated the following day. Tumor cell colonies were counted after 10-12 days of culture. The times of exposure in these experiments are similar; however, the concentrations of FCS are 20% in the CFU-GM assay and 10% in the tumor cell clonogenic assays. The IC50's are calculated as described above for the MTT proliferation assays. (See Example 4).
(§3) To facilitate this comparison, a CFLI-GM toxicity index was calculated by dividing the CFU-GM IC50 by the respective tumor cell clonogenic IC50's in sensitive and resistant cells.

in vitro = details: human
Description: as §1, §2, §3

PKC [2] = experiment: PKC inhibition in platelets; type: cell-based
[3] = tested on: MCF7 Adr 10 human breast cancer cells; experiment: Vinblastine accumulation assay, MCF7 Adr 10; type: cell-based
Description: [^3 H] vinblastine ([^3 H] VLB) was added to a final concentration of 100 nM and the cells were incubated for 2.5 hours. At this time, the cells were washed 3 times in ice cold PBS and lysed in buffer containing 0.1% Triton X-100. Net accumulation of [^3 H] vinblastine was expressed as pmol/mg protein. In [^3 H]

MCF7 Adr 10 [4] = experiment: Tumor cell clonogenic assay, MCF7 ADR 10; type: cell-based, human; details: for IC50: Homo sapiens, NCI/ADR-RES, read-out: Continuous Exposure IC50, MCF7 ADR 10
[5] = tested on: MCF7 Adr 10 human breast cancer cells; experiment: Time course of accumulation of anthraquinones in cells; type: cell-based; details: 25 μM, 37° C., MCF7 Adr 10 cells
Description: (§4) METHOD: Near confluent monolayers of MCF7 ADR 10 were washed 2 times with Dulbecco's Phosphate Buffered Saline (DPBS) and 1 ml of Iscove's Modified Dulbecco's Medium (IMDM) was added to each well. The monolayers were treated with 25 μM 1b or 1c and incubated at 37° C. After incubating the samples for the times indicated in FIG. 1, the monolayers were washed three times with DPBS and detached using 1 ml of Trypsin-EDTA.An aliquot of the cell suspension was counted using a Coulter Counter and a 0.8 ml aliquot was extracted in a Bligh-Dyer extraction (Bligh et at., Can. J. Biochem. 31:911-916 (1959)). The absorbance of the lower chloroform phase was measured at 648 nm and 600 nm using a spectrophotometer. The amount of 1b or 1c present in the extract was quantitated from a standard curve performed in cell extracts. The data is expressed as nmol anthraquinone/10^6 cells.

MCF7 WT = experiment: Tumor cell clonogenic assay, MCF7 WT; type: cell-based, human; details: Homo sapiens
Description: The tumor cell clonogenic assays measure clonal proliferation of tumor cells. In this assay, 300-500 cells are plated in 10 cm^2 wells, allowed to adhere overnight, and are treated the following day. Tumor cell colonies were counted after 10-12 days of culture. […] The IC50's are calculated as described above for the MTT proliferation assays.

PKC [6] = experiment: Micellar PKC screening assay; type: biochemical
Description: The N-substituted diaminoanthraquinone, 1b, (1,4-bis-[[3'-(diethylamino)propyl]amino]anthraquinone), was identified as a PKC inhibitor in the micellar PKC screening assay and in platelets. […] Spectrophotometric analysis of 1b and lc indicated they were excellent chromophores with absorbance maxima at 648 and 600 nm in chloroform, respectively, and extinction coefficients of approximately 20,000. At these wavelengths, there was minimal absorbance by cellular components contained in the chloroform phase. These properties of 1b and 1c were utilized to determine the time course of accumulation of these compounds in MDR MCF7 Adr 10 cells.
The activities of 1a, 1b, 1c and 1d and mitoxantrone, an anthraquinone antineoplastic drug, were evaluated in vinblastine drug accumulation assays performed by the following method. […] Mitoxantrone was identified as a PKC inhibitor in miceliar PKC assays. Compound 1d (1,4-bis-[[2-(4-morpholino)ethyl]amino]anthraquinone) was only evaluated in cellular studies.

[7] = Partition in Bligh-Dyer extracts; type: physicochemical; details: Bligh-Dyer extracts of treated cells
Description: as §4, with “At these wavelengths, there was minimal absorbance by cellular components contained in the chloroform phase. […] METHOD:” for “METHOD:”, “Near confluent monolayers of MCF7 ADR 10 were washed 2 times with Dulbecco's Phosphate Buffered Saline (DPBS) and 1 ml of Iscove's Modified Dulbecco's Medium (IMDM) was added to each well.” left out

[8] = tested on: renal cell carcinoma cell lines, A704, SKRC7 and UOK-39
[9] = target: P-glycoprotein in MCF7 Adr 10 membrane vesicles (Homo sapiens, UniProt P08183); details: MCF7 Adr 10 vesicles
Chain of P-glycoprotein in MCF7 Adr 10 membrane vesicles (P08183 whole entry): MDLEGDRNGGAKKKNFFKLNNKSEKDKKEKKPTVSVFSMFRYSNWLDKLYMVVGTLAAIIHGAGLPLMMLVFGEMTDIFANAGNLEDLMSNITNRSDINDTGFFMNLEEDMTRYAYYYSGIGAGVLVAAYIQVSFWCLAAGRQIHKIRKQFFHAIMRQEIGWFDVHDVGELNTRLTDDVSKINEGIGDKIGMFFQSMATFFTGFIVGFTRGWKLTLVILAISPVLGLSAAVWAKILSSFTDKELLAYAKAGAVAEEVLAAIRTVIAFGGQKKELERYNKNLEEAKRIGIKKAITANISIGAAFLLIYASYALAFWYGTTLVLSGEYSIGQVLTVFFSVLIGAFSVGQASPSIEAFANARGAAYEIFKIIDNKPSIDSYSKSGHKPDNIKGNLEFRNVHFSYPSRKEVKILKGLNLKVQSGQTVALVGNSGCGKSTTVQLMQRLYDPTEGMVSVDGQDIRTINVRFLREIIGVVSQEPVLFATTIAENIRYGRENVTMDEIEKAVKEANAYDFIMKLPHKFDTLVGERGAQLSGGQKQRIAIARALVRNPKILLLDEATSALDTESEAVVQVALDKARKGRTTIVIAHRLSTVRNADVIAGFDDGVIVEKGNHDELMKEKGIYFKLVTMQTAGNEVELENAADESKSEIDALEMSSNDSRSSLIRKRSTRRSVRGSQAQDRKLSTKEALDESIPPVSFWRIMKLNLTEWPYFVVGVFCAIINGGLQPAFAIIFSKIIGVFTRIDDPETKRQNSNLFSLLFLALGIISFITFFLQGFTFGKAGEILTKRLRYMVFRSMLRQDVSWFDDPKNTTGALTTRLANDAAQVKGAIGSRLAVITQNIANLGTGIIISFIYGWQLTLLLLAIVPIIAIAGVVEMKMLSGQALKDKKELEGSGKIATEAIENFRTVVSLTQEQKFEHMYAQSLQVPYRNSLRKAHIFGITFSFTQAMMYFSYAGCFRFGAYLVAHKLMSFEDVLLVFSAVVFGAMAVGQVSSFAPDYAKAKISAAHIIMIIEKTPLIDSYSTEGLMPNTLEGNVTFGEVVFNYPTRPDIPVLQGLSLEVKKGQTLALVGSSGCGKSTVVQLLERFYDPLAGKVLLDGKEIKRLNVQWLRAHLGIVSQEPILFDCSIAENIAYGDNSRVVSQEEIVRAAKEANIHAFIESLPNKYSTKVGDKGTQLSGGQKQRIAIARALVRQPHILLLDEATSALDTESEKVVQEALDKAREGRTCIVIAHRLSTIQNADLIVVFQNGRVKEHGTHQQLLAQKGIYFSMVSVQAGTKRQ

MCF7 Adr 10 [10] = experiment: 72 hour MTT proliferation assay, reversal of drug resistance in MCF7 Adr 10; type: cell-based, human; details: [1c] 0 μM
Description: In 72 hour MTT proliferation assays using the following method, compounds 1b, 1c and 1d were assessed for inhibition of Vinca alkaloid and anthracycline drug resistance in MDR MCF7. Additionally, compounds 1b and 1c were assessed for potentiation of sensitivity to Vinca alkaloid and anthracycline drugs in the parental MCF7 WT cell line.
METHOD: 5000 cells per well were plated in 100 μl of IMDM containing 10% FCS and allowed to adhere overnight. The following day the cells were treated with N-substituted 1,4-diaminoanthraquinones and exposed to graded concentrations of antineoplastic agents. 50 μl of IMDM 10% FCS containing either vehicle or N-substituted 1,4-diaminoanthraquinones at 3 times the final tested concentration was added to cells at timed intervals. The plates were incubated for 2 hours at 37° C. to allow maximal cellular accumulation of N-substituted 1,4-diaminoanthraquinones. 40 μl aliquots of IMDM 10% FCS containing either vehicle or graded concentrations of antineoplastic drugs at 5 times the final concentration were added to treatment groups. Following this addition, 10 μl of IMDM 10% FCS containing either vehicle or N-substituted 1,4-diaminoanthraquinone at 5 times the final concentration was added to each group of wells. The cells were incubated for 72 hours after treatment. At this time the viable cells in each treatment group were estimated in a colorimetric assay by adding MTT and incubating the cells at 37° C. for 3-4 hours. The media in each well was aspirated and MTT formazan was solubilized in isopropyl alcohol acidified with 0.1 N HCl. The absorbance of the solubilized formazan was quantitated using a plate reader spectrophotometer. […] The concentrations of antineoplastic drugs which inhibited proliferation by 50% (IC50's) were estimated by calculating a percentage from the ratio: antineoplastic drug treated groups/control group absorbance and plotting the dose response curve on semilog paper. The IC50 was estimated from this curve. To assess the effects of inhibition of resistance by N-substituted 1,4-diaminoanthraquinones, the percentages were calculated relative to cell groups treated with resistance modifier alone and IC50's calculated as above. A reversal factor was calculated by dividing the IC50 to the antineoplastic drug alone (Control group) by the IC50 to antineoplastic drug in cells treated with resistance modifier.

patients = details: human, in vivo; cited from earlier work
MDR cell lines = details: literature; cited from earlier work
[11] = tested on: intrinsically resistant renal cell carcinoma cell lines; details: cited from earlier work
[12] = cfu-gm vs mcf7, CFU-GM toxicity indices

For `CCN(CC)CCCNc1ccc(NCCCN(CC)CC)c2c1C(=O)c1ccccc1C2=O` [Compound 1b, 1,4-bis-[[3'-(diethylamino)propyl]amino]anthraquinone], the IC50 [1] was 1400 nM, the “CFU-GM Toxicity Index (CFU-GM IC50 / Tumor Cell Clonogenic IC50)” value ([1]; human) was 2.0 and the selectivity ratio (in vitro; CFU-GM Toxicity Index (CFU-GM IC50 / Tumor Cell Clonogenic IC50)) was 3.5. The selectivity ratio (in vitro; [12]) was greater than 1, the selectivity ratio (in vitro; mcf7 vs cfu-gm, sensitivity of both tumor lines relative to CFU-GM) was 2 to 3.5 and the “PKC inhibition in platelets” value (PKC [2]) was “PKC inhibitor”. For the same compound, the minimal effective concentration ([3]; Homo sapiens, NCI/ADR-RES, 100 nM [3H] VLB, 2.5 hours, FIGS. 2 and 3, read-out: lowest concentration which causes a doubling of basal accumulation of vinblastine) was 25 µM, the “activity in vinblastine accumulation assay / drug accumulation” value ([3]; MDR MCF7) was “increase vinblastine accumulation in MDR MCF7” and the “drug accumulation relative to other PKC inhibitors” value ([3]; drug accumulation assays) was “significantly greater activity in drug accumulation assays than other PKC inhibitors”. For the same compound, the IC50 (MCF7 Adr 10 [4]; tumor cell clonogenic assay, 10-12 days) was 700 nM, the “relative sensitivity of MCF7 WT and MDR MCF7 to cytotoxicity” value (MCF7 Adr 10 [4]; clonogenic assays) was “MCF7 WT are more sensitive to cytotoxicity of 1b than MDR MCF7” and the “time of maximal accumulation of 1b and 1c” value [5] was “about 2 hours”. The IC50 (MCF7 WT; MCF7, tumor cell clonogenic assay, 10-12 days, read-out: Continuous Exposure IC50, MCF7 WT) was 400 nM, the “PKC activity in micellar PKC screening assay” value (PKC [6]) was “PKC inhibitor” and the “blue color partitioning with cellular phospholipids in the lower chloroform phase” value [7] was greater than 95%.
In the case of `CC[C@]1(O)C[C@@H]2CN(CCc3c([nH]c4ccccc34)[C@@](C(=O)OC)(c3cc4c(cc3OC)N(C)[C@H]3[C@@](O)(C(=O)OC)[C@H](OC(C)=O)[C@]5(CC)C=CCN6CC[C@]43[C@@H]65)C2)C1` [VLB, reference compound], the “vinblastine IC50 in renal lines relative to vinblastine IC50 of sensitive MCF7” value [8] is reported as 10-600 fold, the “effect of unlabeled VLB on [3H] VLB association” value [9] is reported as “inhibited by addition of unlabeled VLB” and the IC50 (MCF7 Adr 10 [10]; Homo sapiens, NCI/ADR-RES, average ± SD of 3 experiments, read-out: VLB IC50) is reported as 790 nM. For the same compound, the “Reversal Factor (VLB)” value (MCF7 Adr 10 [10]) was 1.0, the “toxicity to CFU-GM relative to drug sensitive WT cancer cells” value [1] was “approximately twice as toxic to CFU-GM” and the IC50 [1] was 0.28 nM. The selectivity ratio (in vitro; [12]) was less than 1, the selectivity ratio (in vitro; cfu-gm vs mcf7 adr 10, toxicity to CFU-GM relative to MDR cells) was roughly 1000 and the IC50 (MCF7 Adr 10 [4]) was 210 nM. The IC50 (MCF7 WT; MCF7, read-out: Continuous Exposure IC50, MCF7 WT) was 0.59 nM.
For `CC/C(=C(\c1ccccc1)c1ccc(OCCN(C)C)cc1)c1ccccc1` [tamoxifen], the toxicity in humans (patients) is listed as “minimal neurologic toxicity that was reversible with cessation of tamoxifen”, the “drug accumulation and reversal of resistance in MDR cell lines” value (MDR cell lines) is listed as “can also modulate resistance of estrogen receptor-negative MDR cell lines” and the “drug accumulation and vinblastine resistance in renal cell carcinoma” value [11] is listed as “increase drug accumulation and decrease vinblastine resistance”.
